PMC7071032, “In Vitro Inhibition of Hsp90 Protein by Benzothiazoloquinazolinequinones Is Enhanced in The Presence of Ascorbate. A Preliminary In Vivo Antiproliferative Study” (Molecules, 2020)
Values joined by “and” are separate entries in the source; they are usually repeats but may differ in a detail not shown here. Identical values can stand only once.

Experiments:
[1] = tested on: transplantable primary liver tumor (TLT); experiment: In vivo antitumor activity in TLT-bearing mice; details: TLT-bearing NMRI mice
Method: To go one-step further, we assessed the effect of the quinone derivative 15 in the TLT-bearing mice model. The dose of 15 used in this study (i.e., 10 mg/kg) was calculated according to doses of menadione, previously used by Verrax et al.. In mice treated with 15, the calculated mean survival time was 24.0 days as compared to 21.9 days in control untreated-animals, representing an increase in life span of 9.6 % (Figure 3). Although this ILS represents a marginal effect as compared to a minimum optimal effect […], a small trend can be inferred supporting a potential protective activity by 15, that requires to be further confirmed. […] To go further, studies are intended in the near future using a larger range of doses of 15.
Figure 3 Kaplan–Meier diagram in groups of TLT-bearing NMRI mice receiving intraperitoneal (i.p.) saline (control untreated animals). Compound 15 was also i.p. administered as 10 mg/kg body weight, 24 h after i.p. transplantation of TLT cells.
Young adult male NMRI mice (25–30 g) were obtained from Janvier Labs (Saint-Berthevin, France). After their placement at the University Animal Facilities, animals were randomized according to their body weight. They were housed in groups of five mice per cage (40 × 25 × 15 cm^3) in a constant temperature environment (22 °C) with alternating 12 h day/night cycles receiving standard food (UAR, Villemoisson-sur-Orge, France) and tap water ad libitum.
Taper et al. first observed the transplantable primary liver tumor (TLT) in 1966 in a two-month old female Swiss Webster mouse. […] Fritzler et al. further characterized the ultrastructure of TLT hepatoma ascites cells. Regarding our experimental conditions, the TLT tumor was maintained by weekly intraperitoneal (i.p.) transplantation (10^4 cells/mice). […] Then, mice mortality was daily recorded. […]
The antitumor activity was calculated according to Geran et al. using the mean survival time (m.s.t.) at day 30 and the increase in life span (ILS) calculated as ILS = [([…]) − 1] × 100. […]

T24 cells = experiment: Clonogenic assay; format: cell-based, human; details: for cell growth compared to control conditions (100%), in brackets / number of colony forming units (CFUs): T24 cells; for number of colony forming units (CFUs): 24 h treatment, 10 days growth
Method: Indeed, at a dose of 0.25 µM, it decreased from 195 to 72 the number of CFUs. Otherwise, it inhibits the proliferation of T24 cells by 63% as compared to the control untreated cells. […] The percentages of the observed cell growth compared to control conditions (100%) are indicated in brackets. […] Cells were allowed to adhere overnight, and then treated with quinones for 24 h. Afterward, they were washed with warm PBS, given fresh medium, and allowed to grow for 10 days. Clonogenic survival was determined by fixing and staining colonies using crystal violet and further counting their number. The number of colonies calculated under control conditions was set as 100%.

PARP = experiment: Immunoblot of PARP protein integrity in TLT cells; format: cell-based, murine; details: 5 µM plus 1 mM ascorbate, 4 h
Method: Cancer cells were incubated for 4 h with 5 µM menadione (K3) or 15 either in the absence or in the presence of 1 mM ascorbate (Asc). Ctl represents control untreated cells. * p < 0.05 as compared to control conditions. Cancer cells were incubated for 4 h in the absence and in the presence of compounds. Afterward, cells were washed twice with ice-cold PBS and then resuspended in RIPA lysis buffer supplemented with 1% protease inhibitor cocktail (Sigma–Aldrich, St. Louis, MO, USA) and 3% phosphatase inhibitor cocktail (Calbiochem, Darmstadt, Germany). Treatment of samples and electrophoresis conditions were conducted as previously reported. Mouse monoclonal primary antibodies against hsp90α/β C-terminus (F8), and against β-actin (clone AC-15), were purchased from Santa Cruz Biotechnology (Santa Cruz, CA, USA) and from Abcam (Cambridge, UK), respectively. Rabbit polyclonal antibodies against PARP were purchased from BD Biosciences (San Diego, CA, USA). Goat anti-rabbit antibody and rabbit anti-mouse polyclonal antibody were purchased respectively from Chemicon International (Temecula, CA, USA) and DakoCytomation (Glostrup, Denmark).

Structure (SMILES): Cc1ccc2c(c1)SC1=NC3=C(C(=O)c4ccccc4C3=O)C(C)(O)N12 (centres unmarked) [Compound 15]
- mean survival time (m.s.t.) ([1]; 10 mg/kg i.p. single dose 24 h after i.p. transplantation, control 21.9 days): 24.0 days
- increase in life span (ILS) ([1]; 10 mg/kg i.p. single dose, vs control untreated animals): 9.6%
- mean of individual mouse survival ([1]; 10 mg/kg i.p., control 21.2 ± 1.6 days, t-test p = 0.262, no significant difference): 22.8 ± 6.1 days
- inhibition at 0.25 µM (T24 cells; Homo sapiens, T-24, clonogenic assay, 0.25 µM, read-out: inhibition of the proliferation of T24 cells as compared to control untreated cells): 63%
- cell growth compared to control conditions (100%), in brackets (T24 cells; 0.025 µM): 92%
- number of colony forming units (CFUs) (T24 cells; 0.025 µM): 180 ± 11 CFUs
- cell growth compared to control conditions (100%), in brackets (T24 cells; 0.125 µM): 83%
- number of colony forming units (CFUs) (T24 cells; 0.125 µM): 162 ± 18 CFUs
- cell growth compared to control conditions (100%), in brackets (T24 cells; 0.25 µM): 37%
- number of colony forming units (CFUs) (T24 cells; 0.25 µM): 72 CFUs and 72 ± 5 CFUs
- cell growth compared to control conditions (100%), in brackets (T24 cells; 1.25 µM): 11%
- number of colony forming units (CFUs) (T24 cells; 1.25 µM): 22 ± 9 CFUs
- cell growth compared to control conditions (100%), in brackets (T24 cells; 2.5 µM): 8%
- number of colony forming units (CFUs) (T24 cells; 2.5 µM): 16 ± 3 CFUs
- cell growth compared to control conditions (100%), in brackets (T24 cells; 5.0 µM): 1%
- number of colony forming units (CFUs) (T24 cells; 5.0 µM): 2 ± 1 CFUs
- PARP degradation (PARP): not PARP degradation
